Data: patent publication US9371280B2, “Substituted pyrrolidine-2-carboxamides” (Hoffmann-La Roche Inc., priority 2012, dated 2016)
Where a name gives a salt, the structure may show the parent alone. Read-outs that look alike come from different tables or passages of the source.

Target: interaction between p53 and MDM2 proteins (recombinant GST-tagged MDM2) (Homo sapiens, UniProt Q00987)
Assay: HTRF assay of inhibition of the p53-MDM2 interaction (GST-MDM2 / biotinylated p53 peptide);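 also: FRET read-out from Eu-labelled anti-GST antibody to streptavidin-APC, with 90 nM N-terminally biotinylated p53 peptide and 160 ng/ml GST-MDM2 in Tris-borate saline containing 1 mM DTT, 384-well format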
Type: binding
Conditions: HTRF, 0.02% BSA, 37° C. 1 h

Sequence of interaction between p53 and MDM2 proteins (recombinant GST-tagged MDM2) (Q00987 whole entry): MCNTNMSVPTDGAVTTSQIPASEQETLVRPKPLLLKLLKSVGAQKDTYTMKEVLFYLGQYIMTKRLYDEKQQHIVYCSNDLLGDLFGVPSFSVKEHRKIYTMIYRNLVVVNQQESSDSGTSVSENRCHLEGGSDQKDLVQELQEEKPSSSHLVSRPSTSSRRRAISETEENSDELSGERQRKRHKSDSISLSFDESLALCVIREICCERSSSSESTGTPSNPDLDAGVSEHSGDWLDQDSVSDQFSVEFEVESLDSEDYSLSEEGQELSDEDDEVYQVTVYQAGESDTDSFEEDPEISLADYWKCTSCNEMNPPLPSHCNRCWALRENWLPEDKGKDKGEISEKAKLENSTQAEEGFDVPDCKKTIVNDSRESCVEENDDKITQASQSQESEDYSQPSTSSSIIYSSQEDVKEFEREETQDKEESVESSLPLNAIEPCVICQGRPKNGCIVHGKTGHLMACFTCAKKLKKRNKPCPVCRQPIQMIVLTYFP

Compound	IC50	IC50 (read-out: IC50 (uM, 0.02% BSA))
COc1cc(C(=O)N(C)C[C@H](O)[C@@H](O)[C@H](O)[C@H](O)CO)ccc1NC(=O)[C@@H]1N[C@@H](CC(C)(C)C)[C@](C#N)(c2ccc(Cl)cc2F)[C@H]1c1cccc(Cl)c1F [Example 55, (2R,3S,4R,5S)-4-(4-Chloro-2-fluoro-phenyl)-3-(3-chloro-2-fluoro-phenyl)-4-cyano-5-(2,2-dimethyl-propyl)-pyrrolidine-2-carboxylic acid {2-methoxy-4-[methyl-((2S,3R,4R,5R)-2,3,4,5,6-pentahydroxy-hexyl)-carbamoyl]-phenyl}-amide, hydrochloride]	0.0091 µM	–
COCCOC(=O)c1ccc(NC(=O)[C@@H]2N[C@@H](CC(C)(C)C)[C@](C#N)(c3ccc(Cl)cc3F)[C@H]2c2cccc(Cl)c2F)c(OC)c1 [Example 10, 2-Methoxyethyl 4-((2R,3S,4R,5S)-3-(3-chloro-2-fluorophenyl)-4-(4-chloro-2-fluorophenyl)-4-cyano-5-neopentylpyrrolidine-2-carboxamido)-3-methoxybenzoate]	0.0107 µM	–
COc1cc(C(=O)OCCOC(=O)CN)ccc1NC(=O)[C@@H]1N[C@@H](CC(C)(C)C)[C@](C#N)(c2ccc(Cl)cc2F)[C@H]1c1cccc(Cl)c1F [Example 30, 4-{[(2R,3S,4R,5S)-4-(4-Chloro-2-fluoro-phenyl)-3-(3-chloro-2-fluoro-phenyl)-4-cyano-5-(2,2-dimethyl-propyl)-pyrrolidine-2-carbonyl]-amino}-3-methoxy-benzoic acid 2-(2-amino-acetoxy)-ethyl ester]	0.0172 µM	–
COc1cc(C(=O)NC(C)CO)ccc1NC(=O)[C@@H]1N[C@@H](CC(C)(C)C)[C@](C#N)(c2ccc(Cl)cc2F)[C@H]1c1cccc(Cl)c1F (mixture of isomers) [Example 14, Rac-(2R,3S,4R,5S)-4-(4-Chloro-2-fluoro-phenyl)-3-(3-chloro-2-fluoro-phenyl)-4-cyano-5-(2,2-dimethyl-propyl)-pyrrolidine-2-carboxylic acid [4-(2-hydroxy-1-methyl-ethylcarbamoyl)-2-methoxy-phenyl]-amide]	0.00675 µM	–
COc1cc(C(=O)N[C@@H]2[C@@H](O)[C@H](O)[C@@H](CO)O[C@@H]2O)ccc1NC(=O)[C@@H]1N[C@@H](CC(C)(C)C)[C@](C#N)(c2ccc(Cl)cc2F)[C@H]1c1cccc(Cl)c1F [Example 56, (2R,3S,4R,5S)-4-(4-Chloro-2-fluoro-phenyl)-3-(3-chloro-2-fluoro-phenyl)-4-cyano-5-(2,2-dimethyl-propyl)-pyrrolidine-2-carboxylic acid [2-methoxy-4-((2S,3R,4R,5S,6R)-2,4,5-trihydroxy-6-hydroxymethyl-tetrahydro-pyran-3-ylcarbamoyl)-phenyl]-amide, hydrochloride]	0.00988 µM	–
COc1cc(C(=O)OCC2COC(C)(C)O2)ccc1NC(=O)[C@@H]1N[C@@H](CC(C)(C)C)[C@](C#N)(c2ccc(Cl)cc2F)[C@H]1c1cccc(Cl)c1F (stereo partly drawn) [Example 8, (2,2-Dimethyl-1,3-dioxolan-4-yl)methyl 4-((2R,3S,4R,5S)-3-(3-chloro-2-fluorophenyl)-4-(4-chloro-2-fluorophenyl)-4-cyano-5-neopentylpyrrolidine-2-carboxamido)-3-methoxybenzoate]	0.00957 µM	–
COc1cc(C(=O)OCCOC(=O)CN(C)C(=O)OC(C)(C)C)ccc1NC(=O)[C@@H]1N[C@@H](CC(C)(C)C)[C@](C#N)(c2ccc(Cl)cc2F)[C@H]1c1cccc(Cl)c1F [Example 31, 4-{[(2R,3S,4R,5S)-4-(4-Chloro-2-fluoro-phenyl)-3-(3-chloro-2-fluoro-phenyl)-4-cyano-5-(2,2-dimethyl-propyl)-pyrrolidine-2-carbonyl]-amino}-3-methoxy-benzoic acid 2-[2-(tert-butoxycarbonyl-methyl-amino)-acetoxy]-ethyl ester]	0.0137 µM	–
COc1cc(C(=O)OC[C@H]2O[C@@H](O)[C@H](O)[C@@H](O)[C@@H]2O)ccc1NC(=O)[C@@H]1N[C@@H](CC(C)(C)C)[C@](C#N)(c2ccc(Cl)cc2F)[C@H]1c1cccc(Cl)c1F [Example 41, 4-{[(2R,3S,4R,5S)-4-(4-Chloro-2-fluoro-phenyl)-3-(3-chloro-2-fluoro-phenyl)-4-cyano-5-(2,2-dimethyl-propyl)-pyrrolidine-2-carbonyl]-amino}-3-methoxy-benzoic acid (2R,3S,4S,5R,6R)-3,4,5,6-tetrahydroxy-tetrahydro-pyran-2-ylmethyl ester; compound with trifluoro-acetic acid]	0.00695 µM	–
4-{[(2R,3S,4R,5S)-4-(4-Chloro-2-fluoro-phenyl)-3-(3-chloro-2-fluoro-phenyl)-4-cyano-5-(2,2-dimethyl-propyl)-pyrrolidine-2-carbonyl]-amino}-3-methoxy-benzoic acid, polyethylene glycol-600 ester, trifluoroacetate salt [Example 44]	–	0.0113 µM
COc1cc(C(=O)NCCOCCOCCOCCN)ccc1NC(=O)[C@@H]1N[C@@H](CC(C)(C)C)[C@](C#N)(c2ccc(Cl)cc2F)[C@H]1c1cccc(Cl)c1F [Example 77, (2R,3S,4R,5S)-4-(4-Chloro-2-fluoro-phenyl)-3-(3-chloro-2-fluoro-phenyl)-4-cyano-5-(2,2-dimethyl-propyl)-pyrrolidine-2-carboxylic acid [4-(2-{2-[2-(2-amino-ethoxy)-ethoxy]-ethoxy}-ethylcarbamoyl)-2-methoxy-phenyl]-amide]	0.00631 µM	–
CCN(CC)CCOC(=O)c1ccc(NC(=O)[C@@H]2N[C@@H](CC(C)(C)C)[C@](C#N)(c3ccc(Cl)cc3F)[C@H]2c2cccc(Cl)c2F)c(OC)c1 [Example 16, 4-{[(2R,3S,4R,5S)-4-(4-Chloro-2-fluoro-phenyl)-3-(3-chloro-2-fluoro-phenyl)-4-cyano-5-(2,2-dimethyl-propyl)-pyrrolidine-2-carbonyl]-amino}-3-methoxy-benzoic acid 2-diethylamino-ethyl ester]	0.0501 µM	–
COc1cc(C(=O)OCCOCCN(C)C)ccc1NC(=O)[C@@H]1N[C@@H](CC(C)(C)C)[C@](C#N)(c2ccc(Cl)cc2F)[C@H]1c1cccc(Cl)c1F [Example 46, 4-{[(2R,3S,4R,5S)-4-(4-Chloro-2-fluoro-phenyl)-3-(3-chloro-2-fluoro-phenyl)-4-cyano-5-(2,2-dimethyl-propyl)-pyrrolidine-2-carbonyl]-amino}-3-methoxy-benzoic acid 2-(2-dimethylamino-ethoxy)-ethyl ester, hydrochloride]	0.0142 µM	–
COc1cc(C(=O)OCC(C)N2CCOCC2)ccc1NC(=O)[C@@H]1N[C@@H](CC(C)(C)C)[C@](C#N)(c2ccc(Cl)cc2F)[C@H]1c1cccc(Cl)c1F (stereo partly drawn) [Example 25, 4-{[(2R,3S,4R,5S)-4-(4-Chloro-2-fluoro-phenyl)-3-(3-chloro-2-fluoro-phenyl)-4-cyano-5-(2,2-dimethyl-propyl)-pyrrolidine-2-carbonyl]-amino}-3-methoxy-benzoic acid 2-morpholin-4-yl-propyl ester, hydrochloride]	0.0155 µM	–
COc1cc(C(=O)OCCOC(=O)[C@@H](C)N)ccc1NC(=O)[C@@H]1N[C@@H](CC(C)(C)C)[C@](C#N)(c2ccc(Cl)cc2F)[C@H]1c1cccc(Cl)c1F [Example 6, 4-{[(2R,3S,4R,5S)-3-(3-Chloro-2-fluoro-phenyl)-4-(4-chloro-2-fluoro-phenyl)-4-cyano-5-(2,2-dimethyl-propyl)-pyrrolidine-2-carbonyl]-amino}-3-methoxy-benzoic acid 2-((R)-2-amino-propionyloxy)-ethyl ester]	0.0371 µM	–
